According to patent US20210401809A1, “PHARMACEUTICAL COMPOUNDS” (Sareum Limited, priority 2016, published 2021):
Blank lines part the entries; values can stand above or below the compound they belong to.

Key:
[1] = system: pSTAT1, pTYK2, cleaved PARP in MOLT-4 tumours; assay: PKPD study: Western blot of tumour tissue; assay type: in vivo, male SCID mice; details: FIG. 6
Method: (§1) Male SCID mice were implanted with MOLT-4 tumour cells (1×10^7 in 50% matrigel). When tumours reached approximately 150 mm^3 animals received a single dose of test compound. Animals to be sampled at 24 hrs also received a second dose at 12 hrs.
(§2) At 1, 6 and 24 h animals were sacrificed and plasma prepared. Tumour tissue was removed and divided into 2 sections—one for bioanalysis and the second for homogenisation for western blotting.
Tumour tissue was homogenised in lysis buffer supplemented with protease and phosphatase inhibitors. Protein in individual samples was quantified using a commercially available BCA kit.
50 μg total protein was run on a 4-20% pre-cast gel and transferred to PVDF membrane before being incubated with the following antibodies: • pSTAT1 • STAT1 • pTYK2 • TYK2 • Cleaved PARP • B-actin • Anti-rabbit IgG

[2] = system: MOLT-4 tumours; assay: Efficacy study in mice bearing MOLT-4 tumours (Example 7); assay type: in vivo, male SCID mice; details: 21 days; for effect on MOLT-4 tumour growth: FIG. 7
Source text: MOLT-4 cells (1×10^7 in matrigel) were implanted onto the rear dorsum of male SCID mice using a 25-gauge needle. When tumours reached approximately 100 mm^3 the mice were randomly assigned to the following treatment groups.

[3] = molecular target: T1, TYK2 kinase (Homo sapiens, UniProt P29597); assay: In vitro enzyme inhibition, 33P-ATP filter kinase assay (Reaction Biology); assay type: biochemical
T1 construct: 833-1187; GST (N); purchased Reaction Biology Corp. (contract assay); host or cells: Baculovirus in Sf21 insect cells
Method: (§3) Compounds of the invention were assayed for their ability to inhibit TYK2 kinase and other JAK kinases.
(§4) Substrates and kinases used in the assays are identified in Table 2 below.
(§5) JAK3tide=[Ac-[…]-NH2]

[4] = molecular target: T2, JAK3 (Homo sapiens, UniProt P52333); assay: as above; assay type: biochemical
T2 construct: 781-1124; GST (N); purchased Reaction Biology Corp. (contract assay); host or cells: Baculovirus in Sf21 insect cells
Method: as §3, §4, §5

[5] = molecular target: T3, JAK1 (Homo sapiens, UniProt P23458); assay: as above; assay type: biochemical
T3 construct: 866-1154; GST (N); purchased Reaction Biology Corp. (contract assay); host or cells: Baculovirus in Sf21 insect cells
Method: as §3, §4, §5

[6] = system: PARP cleavage in MOLT-4 cells; assay: Western blot assay, chronic compound treatment; assay type: cell-based; details: 48 hrs, tested 0.03-3 μM, FIG. 2
Method: MOLT-4 cells were treated with Compounds 25 and 29 (of Example 1) and three benchmark inhibitors (GLPG0634 (Filgotinib, developed by Galapagos), TG101209 and GDC-046) as comparative examples at five concentrations (3, 1, 0.3, 0.1 and 0.03 μM), for 48 hrs.
Cell lysates were analysed by Western blot and probed with antibodies against PARP and Actin.
The details of the antibodies used are set out in the table below.
Protocol • Cell were plated in 6-well plates at 4e6 cells per well in 6 ml of media (RPMI+10% FBS) and incubated for at least 1 h at 37° C., 5% CO2. • Cells were treated with the indicated concentrations of compounds for 48 hrs. • Cells were harvested by centrifuging at 12,000 rpm for 1 min (4° C.), washed in ice cold PBS and centrifuged again at 12,000 rpm for 1 min (4° C.). • The supernatant was removed and the cell pellet snap frozen on dry ice. • Cells were lysed in RIPA buffer (with protease and phosphatase inhibitors) and incubated on ice for 30 min. • Cellular debris was pelleted at 13,000 rpm for 5 min at 4° C., supernatant was transferred to a fresh tube. • Protein concentration was estimated using a BCA assay. • 30 μg of protein was loaded onto 4-12% NuPAGE Novex Bis-Tris protein gels (MOPs buffer). • Protein was transferred to a PVDF membrane using dry transfer (iBlot) and western blotting performed against the antigens of interest.

[7] = system: CCRF-CEM cells (TYK2-dependent T-ALL); assay: Cell proliferation assay (ATPlite, 7 days); assay type: cell-based; details: Homo sapiens, 168 h
Method: (§6) Jurkat, MOLT-4, CCRF-CEM and CCRF-HSB-2 cells are all TYK2-dependent T-ALL cells. Loucy cells are TYK2-independent T-ALL cell lines. Dexamethasone, Etoposide and Paclitaxel were used as positive controls. Compound effects were studied 7 days after compound addition […] Luminescent product was detected using a BMG FLUOstar plate reader. • The data were analysed using a 4-parameter logistic equation in GraphPad Prism.

[8] = system: Loucy cells (TYK2-independent T-ALL); assay: Cell proliferation assay (ATPlite, 7 days); assay type: cell-based; details: 168 h
Method: as §6

[9] = system: CCRF-HSB-2 cells (TYK2-dependent T-ALL); assay: Cell proliferation assay (ATPlite, 7 days); assay type: cell-based; details: Homo sapiens, CCRF-HSB-2, 168 h
Method: as §6

[10] = system: Jurkat cells (TYK2-dependent T-ALL); assay: Cell proliferation assay (ATPlite, 7 days); assay type: cell-based; details: Homo sapiens, 168 h
Method: as §6

[11] = system: MOLT-4 cells (TYK2-dependent T-ALL); assay: Cell proliferation assay (ATPlite, 7 days); assay type: cell-based; details: Homo sapiens, MOLT-4, 168 h
Method: as §6

[12] = PKPD study: plasma and tumour concentrations; assay type: in vivo, male SCID mice; details: MOLT-4 tumour-bearing mice
Method: as §1, §2

[13] = Animal bodyweight in MOLT-4 xenograft study (Example 9); assay type: in vivo, male SCID mice; details: 25 and 50 mg/kg BID PO, 21 days
Method: (§7) A total of 50 male SCID mice aged 5-7 weeks were used for the study. These were bred in-house at Axis Bioservices. Animals were housed in IVC cages (up to 5 per cage) with individual mice identified by tail mark. All animals were allowed free access to a standard certified commercial diet and sanitised water during the study. The holding room was maintained under standard conditions: 20-24° C., 40-70% humidity and a 12 h light/dark cycle.
(§8) MOLT-4 cells (1×10^7 in matrigel) were implanted onto the rear dorsum of male SCID mice using a 25-gauge needle. When tumours reached approximately 100-150 mm^3 the mice were randomly assigned to the following treatment groups.
(§9) Dosing solutions were prepared on the day of study.
(§10) The formulation for cyclophosphamide was PBS at a dosing volume of 10 ml/kg based on animal weight on day of dosing.
(§11) For combination dosing, both compounds were dosed at the same time.

[14] = system: MOLT-4 xenografts; assay: Tumour growth delay study in mice bearing MOLT-4 xenografts (Example 9); assay type: in vivo, male SCID mice
Method: as §7, §8, §9, §10, §11

[15] = system: CCRF-HSB-2 tumours; assay: Tumour growth delay study in mice bearing CCRF-HSB-2 tumours (Example 8); assay type: in vivo, male SCID mice; details: for T/C (test versus control) at the end of the study period: 18 days
Method: as §9

[16] = 150 mg/kg Q5D IP
Method: A total of 40 male SCID mice aged 5-7 weeks were used for the study. These were purchased from Charles River and allowed to acclimatize for 7 days prior to tumour implantation. Animals were housed in IVC cages (up to 5 per cage) with individual mice identified by tail mark. All animals were allowed free access to a standard certified commercial diet and sanitised water during the study. The holding room was maintained under standard conditions: 20-24° C., 40-70% humidity and a 12 h light/dark cycle.
CCRF-HSB-2 cells (5×10^6 in matrigel) were implanted onto the rear dorsum of male SCID mice using a 25-gauge needle. When tumours reached a size of approximately 100-150 mm^3 the mice were randomly assigned to the following treatment groups.
Dosing solutions were prepared on the day of study. Formulation was 0.5% methylcellulose/0.025% Tween-20 at dosing volume of 10 ml/kg based on animal weight on day of dosing. Animals were dosed orally twice daily (12 hours apart) for 18 consecutive days.

[17] = system: TYK2 dependent cell lines (T-ALL cells); details: Sanda et al.; read-out: IC50 for inhibiting growth of TYK2 dependent cell lines; cited from earlier work
[18] = system: TYK2-independent cell line (LOUCY); details: Sanda et al.; cited from earlier work

T2 sequence (P52333 781-1124): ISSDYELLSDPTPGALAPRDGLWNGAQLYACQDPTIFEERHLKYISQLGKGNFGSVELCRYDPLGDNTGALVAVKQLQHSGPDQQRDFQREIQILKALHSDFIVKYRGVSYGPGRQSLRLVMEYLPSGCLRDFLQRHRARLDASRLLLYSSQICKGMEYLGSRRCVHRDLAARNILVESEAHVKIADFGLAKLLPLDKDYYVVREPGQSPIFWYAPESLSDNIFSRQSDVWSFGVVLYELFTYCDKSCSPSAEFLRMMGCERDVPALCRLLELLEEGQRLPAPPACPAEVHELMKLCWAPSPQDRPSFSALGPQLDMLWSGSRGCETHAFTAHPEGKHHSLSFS
T3 sequence (P23458 866-1154): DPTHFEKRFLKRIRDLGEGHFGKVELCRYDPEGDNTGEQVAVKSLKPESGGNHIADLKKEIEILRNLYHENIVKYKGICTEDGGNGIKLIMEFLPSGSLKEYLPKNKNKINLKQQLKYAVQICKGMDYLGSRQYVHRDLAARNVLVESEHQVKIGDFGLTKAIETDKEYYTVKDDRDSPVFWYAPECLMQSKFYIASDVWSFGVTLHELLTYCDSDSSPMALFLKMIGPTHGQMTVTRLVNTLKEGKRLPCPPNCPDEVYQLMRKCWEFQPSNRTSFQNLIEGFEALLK
T1 sequence (P29597 833-1187): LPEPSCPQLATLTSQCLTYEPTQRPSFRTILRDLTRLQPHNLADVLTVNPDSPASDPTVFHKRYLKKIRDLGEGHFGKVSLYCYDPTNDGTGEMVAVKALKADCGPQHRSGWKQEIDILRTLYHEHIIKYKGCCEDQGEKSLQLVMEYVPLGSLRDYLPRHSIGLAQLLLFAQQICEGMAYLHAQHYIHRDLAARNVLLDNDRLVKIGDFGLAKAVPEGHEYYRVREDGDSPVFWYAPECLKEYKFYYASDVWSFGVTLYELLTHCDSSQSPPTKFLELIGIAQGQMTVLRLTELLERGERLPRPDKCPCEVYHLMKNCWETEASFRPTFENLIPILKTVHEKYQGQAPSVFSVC

IC50 [3]: 0.564 nM
IC50 [4]: 43.2 nM
IC50 [5]: 28.9 nM
IC50 [7]: 0.38 µM
IC50 [9]: 0.43 µM
IC50 [10]: 0.15 µM
IC50 [11]: 0.27 µM
maximal concentration in plasma ([12]; plasma, single dose, FIG. 4): > 4000 ng/mL
time of maximal exposure in plasma after dosing ([12]; plasma, single dose, FIG. 4): one
maximal concentration in tumour tissue ([12]; tumour tissue, FIG. 5): > 3000 ng per gram of tumour tissue
time of maximal exposure in tumour tissue after dosing ([12]; tumour tissue, FIG. 5): six
Compound: NC(=O)c1nc(-c2c(F)cccc2Cl)oc1Nc1ccc(C(=O)N2CCOCC2)cc1 [Compound 25, 2-(2-chloro-6-fluoro-phenyl)-5-[4-(morpholine-4-carbonyl)-phenylamino]-oxazole-4-carboxylic acid amide]
level of phosphorylated STAT1 in tumour ([1]; MOLT-4 tumour tissue at 1, 6, 24 h vs vehicle): reduction in level of phosphorylated STAT1 at t=1 h, returning to normal in comparison with vehicle treated controls between 6 and 24 h
cleaved Parp in tumour ([1]; MOLT-4 tumour tissue, relative to vehicle treated controls): An increase in cleaved Parp, relative to vehicle treated controls, was observed between 1 and 24 h
Phosphorylated TYK2 levels in tumour ([1]; MOLT-4 tumour tissue, second dose at 12 hrs): increased at 24 h following the initial dose
T/C (test versus control), tumour volume, end of study ([2]; 25 mg/kg BID per os): 63.5%
T/C (test versus control), tumour weight, end of study ([2]; 25 mg/kg BID per os): 60.7%
effect on MOLT-4 tumour growth ([2]; 25 mg/kg BID per os): slowing growth but not resulting in tumour regression
T/C (test versus control), tumour volume, end of study ([2]; 50 mg/kg BID per os): 27.0%
T/C (test versus control), tumour weight, end of study ([2]; 50 mg/kg BID per os): 24.0%
effect on MOLT-4 tumour growth ([2]; 50 mg/kg BID per os): tumour regression
concentrations at which cleaved PARP is present (apoptosis) [6]: ≥ 1 µM
IC50 [8]: 0.35 µM

bodyweight during the study [13]: maintained at pre-treatment levels
IC50 [3]: 0.617 nM
IC50 [4]: 90.8 nM
IC50 [5]: 16.8 nM
IC50 [7]: 1.8 µM
IC50 [9]: 1.4 µM
IC50 [10]: 0.6 µM
IC50 [11]: 1.2 µM
Compound: NC(=O)c1nc(-c2c(Cl)cccc2Cl)oc1Nc1ccc(C(=O)N2CCOCC2)cc1 [Compound 29, 2-(2,6-dichloro-phenyl)-5-[4-(morpholine-4-carbonyl)-phenylamino]-oxazole-4-carboxylic acid amide]
T/C (test versus control) at the end of the study period ([14]; 25 mg/kg BID PO, 21 days): 26.8%
T/C (test versus control) at the end of the study period ([14]; 50 mg/kg BID PO, 21 days): 16.6%
concentrations at which cleaved PARP is present (apoptosis) [6]: ≥ 3 µM
IC50 [8]: 1.7 µM
T/C (test versus control) at the end of the study period ([15]; 25 mg/kg BID PO): 18.1%
T/C (test versus control) at the end of the study period ([15]; 50 mg/kg BID PO): 10.8%
control of CCRF-HSB-2 tumour growth ([15]; 25 and 50 mg/kg BID PO, similar inhibition at both doses (p=0.6397), FIG. 8): good efficacy in controlling CCRF-HSB-2 tumour growth
tumour weight at Day 18 versus vehicle only ([15]; 25 and 50 mg/kg BID, p<0.0001, FIG. 9): significantly smaller

Compound: O=P1(N(CCCl)CCCl)NCCCO1 (stereo not drawn) [cyclophosphamide, reference compound]
animal bodyweight [16]: lost weight this was not significant
T/C (test versus control), tumour volume, end of study ([2]; 150 mg/kg Q5D): 51.7%
T/C (test versus control), tumour weight, end of study ([2]; 150 mg/kg Q5D): 49.0%
T/C (test versus control) at the end of the study period ([14]; 150 mg/kg Q5D IP): 26.2%
T/C (test versus control) at the end of the study period ([15]; 150 mg/kg Q5D IP): 5.9%

Compound: JAK Inhibitor I
IC50 [17]: 1000 to 3000 nM
sensitivity of TYK2-independent cell line (LOUCY) [18]: insensitive
